Data as given in PubChem BioAssay AID2060359 (Molecular Pharmacology Branch, DTP, NCI, 2025).
pIC50: −log10 of the molar value.

System: 276233-004-R-J1-PDC spheroids with HUVEC/MSC, viability
Assay: Anticancer human tumor 276233-004-R-J1-PDC patient-derived colon adenocarcinoma cell line growth inhibition [TAK]
Conditions: for pIC50: curve of first compound; for viability, T/C: stronger effect = lower value
Method in brief: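 Drug combinations, each paired with TAK-243 or ipatasertib, were tested on multi-cell spheroids of 60% malignant cells, 25% HUVEC and 15% hMSC. Top concentrations were at or near the clinical Cmax (10 microM if undetermined), decreasing by half-log; viability is given as % test/control.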

[1] = second compound 0.3 µM, first compound 0.0316 µM
[2] = second compound 0.3 µM, first compound 0.1 µM
[3] = second compound 0.3 µM, first compound 0.316 µM
[4] = second compound 0.3 µM, first compound 1 µM
[5] = second compound 0.3 µM, first compound 3.16 µM
[6] = second compound 0.3 µM, first compound 10 µM
[7] = second compound 0.949 µM, first compound 0.0316 µM
[8] = second compound 0.949 µM, first compound 0.1 µM
[9] = second compound 0.949 µM, first compound 0.316 µM
[10] = second compound 0.949 µM, first compound 1 µM
[11] = second compound 0.949 µM, first compound 3.16 µM
[12] = second compound 0.949 µM, first compound 10 µM
[13] = second compound 3 µM, first compound 0.0316 µM
[14] = second compound 3 µM, first compound 0.1 µM
[15] = second compound 3 µM, first compound 0.316 µM
[16] = second compound 3 µM, first compound 1 µM
[17] = second compound 3 µM, first compound 3.16 µM
[18] = second compound 3 µM, first compound 10 µM
[19] = second compound 9.49 µM, first compound 0.0316 µM
[20] = second compound 9.49 µM, first compound 0.1 µM
[21] = second compound 9.49 µM, first compound 0.316 µM
[22] = second compound 9.49 µM, first compound 1 µM
[23] = second compound 9.49 µM, first compound 3.16 µM
[24] = second compound 9.49 µM, first compound 10 µM
[25] = second compound 30 µM, first compound 0.0316 µM
[26] = second compound 30 µM, first compound 0.1 µM
[27] = second compound 30 µM, first compound 0.316 µM
[28] = second compound 30 µM, first compound 1 µM
[29] = second compound 30 µM, first compound 3.16 µM
[30] = second compound 30 µM, first compound 10 µM
[31] = second compound 0.3 µM, first compound 0.00316 µM
[32] = second compound 0.3 µM, first compound 0.01 µM
[33] = second compound 0.949 µM, first compound 0.00316 µM
[34] = second compound 0.949 µM, first compound 0.01 µM
[35] = second compound 3 µM, first compound 0.00316 µM
[36] = second compound 3 µM, first compound 0.01 µM
[37] = second compound 9.49 µM, first compound 0.00316 µM
[38] = second compound 9.49 µM, first compound 0.01 µM
[39] = second compound 30 µM, first compound 0.00316 µM
[40] = second compound 30 µM, first compound 0.01 µM
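Note: spheroids exposed to drugs for seven days before the viability read.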

CC(C)(C)c1nc(-c2cccc(NS(=O)(=O)c3c(F)cccc3F)c2F)c(-c2ccnc(N)n2)s1 + CC(C)NCC(C(=O)N1CCN(c2ncnc3c2C(C)CC3O)CC1)c1ccc(Cl)cc1
pIC50 (second compound 0.3 µM): < 5.00
pIC50 (second compound 0.949 µM): < 5.00
pIC50 (second compound 3 µM): < 5.00
pIC50 (second compound 9.49 µM): < 5.00
pIC50 (second compound 30 µM): < 5.00
viability, T/C [1]: 109%
viability, T/C [2]: 92.8%
viability, T/C [3]: 110%
viability, T/C [4]: 90.7%
viability, T/C [5]: 65.1%
viability, T/C [6]: 82.6%
viability, T/C [7]: 101%
viability, T/C [8]: 96.4%
viability, T/C [9]: 86.8%
viability, T/C [10]: 84.4%
viability, T/C [11]: 73.8%
viability, T/C [12]: 71.8%
viability, T/C [13]: 80.6%
viability, T/C [14]: 78.3%
viability, T/C [15]: 91.1%
viability, T/C [16]: 61.1%
viability, T/C [17]: 63.5%
viability, T/C [18]: 65.5%
viability, T/C [19]: 73.2%
viability, T/C [20]: 78.8%
viability, T/C [21]: 68.2%
viability, T/C [22]: 64.7%
viability, T/C [23]: 83.1%
viability, T/C [24]: 57%
viability, T/C [25]: 61.9%
viability, T/C [26]: 73.8%
viability, T/C [27]: 64.6%
viability, T/C [28]: 70.1%
viability, T/C [29]: 67.5%
viability, T/C [30]: 75.3%

CC(C)n1nc(-c2ccc3oc(N)nc3c2)c2c(N)ncnc21 + CC(C)NCC(C(=O)N1CCN(c2ncnc3c2C(C)CC3O)CC1)c1ccc(Cl)cc1
pIC50 (second compound 0.3 µM): < 7.00
pIC50 (second compound 0.949 µM): < 7.00
pIC50 (second compound 3 µM): < 7.00
pIC50 (second compound 9.49 µM): < 7.00
pIC50 (second compound 30 µM): < 7.00
viability, T/C (second compound 0.3 µM, first compound 0.000316 µM): 112%
viability, T/C (second compound 0.3 µM, first compound 0.001 µM): 98.7%
viability, T/C [31]: 89.5%
viability, T/C [32]: 90.6%
viability, T/C [1]: 78.2%
viability, T/C [2]: 60.8%
viability, T/C (second compound 0.949 µM, first compound 0.000316 µM): 104%
viability, T/C (second compound 0.949 µM, first compound 0.001 µM): 84.9%
viability, T/C [33]: 83.9%
viability, T/C [34]: 68.1%
viability, T/C [7]: 65.3%
viability, T/C [8]: 57.2%
viability, T/C (second compound 3 µM, first compound 0.000316 µM): 84.7%
viability, T/C (second compound 3 µM, first compound 0.001 µM): 81.8%
viability, T/C [35]: 72.4%
viability, T/C [36]: 63.4%
viability, T/C [13]: 69.5%
viability, T/C [14]: 58.9%
viability, T/C (second compound 9.49 µM, first compound 0.000316 µM): 74.8%
viability, T/C (second compound 9.49 µM, first compound 0.001 µM): 77.1%
viability, T/C [37]: 74.6%
viability, T/C [38]: 70.1%
viability, T/C [19]: 66.5%
viability, T/C [20]: 60.1%
viability, T/C (second compound 30 µM, first compound 0.000316 µM): 61.4%
viability, T/C (second compound 30 µM, first compound 0.001 µM): 64.7%
viability, T/C [39]: 59%
viability, T/C [40]: 64.5%
viability, T/C [25]: 78.5%
viability, T/C [26]: 59.7%

CCCS(=O)(=O)Nc1ccc(F)c(C(=O)c2c[nH]c3ncc(-c4ccc(Cl)cc4)cc23)c1F + CC(C)NCC(C(=O)N1CCN(c2ncnc3c2C(C)CC3O)CC1)c1ccc(Cl)cc1
pIC50 (second compound 0.3 µM): < 4.00
pIC50 (second compound 0.949 µM): < 4.00
pIC50 (second compound 3 µM): < 4.00
pIC50 (second compound 9.49 µM): < 4.00
pIC50 (second compound 30 µM): < 4.00
viability, T/C [3]: 83.8%
viability, T/C [4]: 99.5%
viability, T/C [5]: 96.9%
viability, T/C [6]: 102%
viability, T/C (second compound 0.3 µM, first compound 31.6 µM): 95.7%
viability, T/C (second compound 0.3 µM, first compound 100 µM): 120%
viability, T/C [9]: 86.9%
viability, T/C [10]: 89.7%
viability, T/C [11]: 86.4%
viability, T/C [12]: 69.3%
viability, T/C (second compound 0.949 µM, first compound 31.6 µM): 87.2%
viability, T/C (second compound 0.949 µM, first compound 100 µM): 86.9%
viability, T/C [15]: 72.7%
viability, T/C [16]: 77.3%
viability, T/C [17]: 91.2%
viability, T/C [18]: 76.9%
viability, T/C (second compound 3 µM, first compound 31.6 µM): 68.7%
viability, T/C (second compound 3 µM, first compound 100 µM): 74.5%
viability, T/C [21]: 63.8%
viability, T/C [22]: 70%
viability, T/C [23]: 72.2%
viability, T/C [24]: 62.8%
viability, T/C (second compound 9.49 µM, first compound 31.6 µM): 92.2%
viability, T/C (second compound 9.49 µM, first compound 100 µM): 68.8%
viability, T/C [27]: 68.4%
viability, T/C [28]: 61.8%
viability, T/C [29]: 79%
viability, T/C [30]: 72.1%
viability, T/C (second compound 30 µM, first compound 31.6 µM): 59.5%
viability, T/C (second compound 30 µM, first compound 100 µM): 63.5%

COc1c(OCCCN2CCOCC2)ccc2c3n(c(=NC(=O)c4cnc(N)nc4)nc12)CCN3 + CC(C)NCC(C(=O)N1CCN(c2ncnc3c2C(C)CC3O)CC1)c1ccc(Cl)cc1
pIC50 (second compound 0.3 µM): 7.50
pIC50 (second compound 0.949 µM): 7.54
pIC50 (second compound 3 µM): 7.58
pIC50 (second compound 9.49 µM): 7.67
pIC50 (second compound 30 µM): > 8.50
viability, T/C [31]: 74.1%
viability, T/C [32]: 78.6%
viability, T/C [1]: 49.7%
viability, T/C [2]: 41.8%
viability, T/C [3]: 43.7%
viability, T/C [4]: 52.2%
viability, T/C [33]: 67%
viability, T/C [34]: 59.8%
viability, T/C [7]: 51.5%
viability, T/C [8]: 36.3%
viability, T/C [9]: 37.6%
viability, T/C [10]: 49.3%
viability, T/C [35]: 66.8%
viability, T/C [36]: 53.3%
viability, T/C [13]: 46.8%
viability, T/C [14]: 46%
viability, T/C [15]: 41.5%
viability, T/C [16]: 61.7%
viability, T/C [37]: 60.5%
viability, T/C [38]: 48.3%
viability, T/C [19]: 52.5%
viability, T/C [20]: 43%
viability, T/C [21]: 44%
viability, T/C [22]: 38.4%
viability, T/C [39]: 34%
viability, T/C [40]: 34.5%
viability, T/C [25]: 33.2%
viability, T/C [26]: 32.9%
viability, T/C [27]: 25.9%
viability, T/C [28]: 41.5%

Cc1nc(NC(=O)N2CCCC2C(N)=O)sc1-c1ccnc(C(C)(C)C(F)(F)F)c1 (stereo not given) + CC(C)NCC(C(=O)N1CCN(c2ncnc3c2C(C)CC3O)CC1)c1ccc(Cl)cc1
pIC50 (second compound 0.3 µM): 5.15
pIC50 (second compound 0.949 µM): 6.01
pIC50 (second compound 3 µM): 5.57
pIC50 (second compound 9.49 µM): 5.70
pIC50 (second compound 30 µM): > 7.50
viability, T/C [1]: 95.3%
viability, T/C [2]: 77%
viability, T/C [3]: 79.2%
viability, T/C [4]: 69.4%
viability, T/C [5]: 60.1%
viability, T/C [6]: 44.7%
viability, T/C [7]: 77.3%
viability, T/C [8]: 78.8%
viability, T/C [9]: 71.9%
viability, T/C [10]: 49.4%
viability, T/C [11]: 50.9%
viability, T/C [12]: 40.9%
viability, T/C [13]: 63.7%
viability, T/C [14]: 77.3%
viability, T/C [15]: 67.5%
viability, T/C [16]: 58%
viability, T/C [17]: 46.3%
viability, T/C [18]: 50.8%
viability, T/C [19]: 54.5%
viability, T/C [20]: 64.5%
viability, T/C [21]: 63%
viability, T/C [22]: 55.8%
viability, T/C [23]: 46%
viability, T/C [24]: 39.8%
viability, T/C [25]: 39.1%
viability, T/C [26]: 40.9%
viability, T/C [27]: 34%
viability, T/C [28]: 32.9%
viability, T/C [29]: 27.4%
viability, T/C [30]: 24.5%
